Where two headings read alike, the source gives them in different places.
Tests used:
[1] = tested on: L1210 cells; format: in vivo; details: 5-FU 10 mg/kg s.c., day 1-10
Description: (§1) L1210 cells on the growth phase were injected at 1×10^5 cells via I.P. into BDF1 female mice (weight approximately 20 g). The next day of implantation, mice were grouped, and received an injection of 0.1 ml/10 g weight of the drug. […] The number of mice of each group was 10. Mice were weighed before and after the treatment. Survival time of each mouse was recorded. The results of changes in increasing of life span of mice were used in assessment of response. The increase of life span was determined as; increase of life span rate=(median survival time of treated animals/median survival time of control animals−1)×100%, the data were analyzed by t-test.

[2] = tested on: Murine melanoma cell line B 16; test: Solid tumor transplant model, baicalein and scutellarin; format: in vivo, C57BL/6 female mice; details: for Final Tumor WT. (g) Mean ± SD / Tumor Growth Inhibition %: day 15
Description: C57BL/6 female mice (weight approximately 20 g) were used in this study. Murine melanoma cell line B 16 cells, 2×10^6 tumor cells were implanted s.c. into the armpit of each mice after two passenges in vitro cultured. On the next day after implantation, mice were randomly grouped at 10 per group and received 0.1ml/10 g weight of the drugs. […] The number of mice of each group was 10. Mice were weighed before and post the treatment. Animals were killed on day 15, and the tumors were removed and weighted.

[3] = tested on: Murine melanoma cell line B 16; test: Solid tumor transplant model, baicalein and baicalin; format: in vivo
Description: C57BL/6 female mice (weight approximately 20 g) were used in this study. Murine melanoma cell line B 16 cells, 2×10^6 tumor cells were implanted s.c. into the armpit of each mice after two passenges in vitro cultured. On the next day after implantation, mice were randomly grouped at 10 per group and received 0.1 ml/10 g weight of the drugs. […] The number of mice of each group was 10. Mice were weighed before and post the treatment. Animals were killed on day 15, and the tumors were removed and weighted.

[4] = tested on: L1210 cells; format: in vivo; details: day 1-10; for ILS(%) increase of life span: L1210 mice
Description: as §1

[5] = tested on: Human leukemia cell line HL60; test: MTT growth inhibition, baicalein and scutellarin single or combination; format: cell-based
[6] = tested on: Human breast cancer cell line MCF-7; test: as above; format: cell-based
Description: (§2) Cells were seeded onto 96-well plate at 5×10^3 cells/well, and grown in culture medium containing 10% fetal bovine serum (FBS). […] The viable cell growth was determined by MTT assay after 72-h continuous exposure.
(§3) A CI below 1 is an indication of synergy, while a CI equal to 1 represents addition, and a CI above 1 indicates antagonism.

[7] = tested on: Human prostate cancer cell line PC3; test: as above; format: cell-based
Description: as §2, §3

[8] = tested on: Human esophagus cancer cell line TE2; test: as above; format: cell-based
Description: as §2, §3

[9] = tested on: human liver cancer cell line HepG2; test: as above; format: cell-based
[10] = tested on: Human gastric cancer cell line MKN28; test: as above; format: cell-based
[11] = tested on: Human colon cancer cell line HCT116; test: as above; format: cell-based
[12] = tested on: Human hung cancer cell line A549; test: as above; format: cell-based
[13] = B16 mice, 5-FU 10 mg/kg s.c., day 1-10
[14] = female, C57BL/6, mouse, in vivo, 15 days
[15] = B16 mice, day 15, 5-FU 10 mg/kg s.c., day 1-10
[16] = B16 mice, Sc 25 mg/kg i.p., day 1-10
[17] = B16 mice, Sc 50 mg/kg i.p., day 1-10
[18] = B16 mice, Sc 100 mg/kg i.p., day 1-10
[19] = B16 mice, Sc 200 mg/kg i.p., day 1-10

O=c1[nH]cc(F)c(=O)[nH]1 [5-FU, 5-fluorouracil, reference compound]
Number of mice Surviving through 15 days/total number [1]: 10/10 | ILS(%) increase of life span ([1]; L1210 mice): 79% | Final Tumor WT. (g) Mean ± SD [2, 13]: 1.35 ± 0.1 g | Tumor Growth Inhibition % [2, 13]: 38% | Number of mice through 15 days/total number [2, 14]: 10/10 | Final Tumor WT. (g) Mean ± SD [3, 15]: 1.35 ± 0.1 g | Tumor Growth Inhibition % [3, 15]: 38% | Weight Change % [3, 13]: <5% | Number of mice Surviving through 15 days/total number [3, 14]: 10/10 | Number of mice Through surviving 15 days/total number ([4]; 5-FU 10 mg/kg s.c.): 10/10 | ILS(%) increase of life span ([4]; 5-FU 10 mg/kg s.c.): 79%

O=C(O)[C@H]1O[C@@H](Oc2cc3oc(-c4ccc(O)cc4)cc(=O)c3c(O)c2O)[C@H](O)[C@@H](O)[C@@H]1O [Sc, scutellarin]
Inhibition of cell growth (%) ([5]; single dose 2.5 μm): 2.25 ± 2.7% | Inhibition of cell growth (%) ([5]; single dose 5 μm): 8.64 ± 3.2% | Inhibition of cell growth (%) ([5]; single dose 10 μm): 37 ± 2.2% | Inhibition of cell growth (%) ([5]; single dose 20 μm): 64.2 ± 2.7% | Inhibition of cell growth (%) ([5]; single dose 40 μm): 88.5 ± 2.5% | Inhibition of cell growth (%) ([6]; single dose 2.5 μm): 5 ± 2.5% | Inhibition of cell growth (%) ([6]; single dose 5 μm): 20.71 ± 3.2% | Inhibition of cell growth (%) ([6]; single dose 10 μm): 71 ± 2.2% | Inhibition of cell growth (%) ([6]; single dose 20 μm): 87.5 ± 2.5% | Inhibition of cell growth (%) ([6]; single dose 40 μm): 95.57 ± 2.2% | Inhibition of cell growth (%) ([7]; single dose 2.5 μm): 2 ± 5% | Inhibition of cell growth (%) ([7]; single dose 5 μm): 18 ± 3% | Inhibition of cell growth (%) ([7]; single dose 10 μm): 39 ± 7% | Inhibition of cell growth (%) ([7]; single dose 20 μm): 72 ± 9% | Inhibition of cell growth (%) ([7]; single dose 40 μm): 91.8 ± 5% | Inhibition of cell growth (%) ([8]; single dose 2.5 μm): 4.7 ± 2.2% | Inhibition of cell growth (%) ([8]; single dose 5 μm): 12.97 ± 3.1% | Inhibition of cell growth (%) ([8]; single dose 10 μm): 27.1 ± 2.7% | Inhibition of cell growth (%) ([8]; single dose 20 μm): 66 ± 2.9% | Inhibition of cell growth (%) ([8]; single dose 40 μm): 84.62 ± 2.5% | Final Tumor WT. (g) Mean ± SD [2, 16]: 1.81 ± 0.11 g | Tumor Growth Inhibition % [2, 16]: 17% | Final Tumor WT. (g) Mean ± SD [2, 17]: 1.72 ± 0.08 g | Tumor Growth Inhibition % [2, 17]: 21.1% | Final Tumor WT. (g) Mean ± SD [2, 18]: 1.48 ± 0.12 g | Tumor Growth Inhibition % [2, 18]: 32.1% | Final Tumor WT. (g) Mean ± SD [2, 19]: 1.22 ± 0.09 g | Tumor Growth Inhibition % [2, 19]: 44% | Number of mice through 15 days/total number [2, 16]: 10/10 | Weight Change % [2, 16]: <5% | Number of mice through 15 days/total number [2, 17]: 10/10 | Weight Change % [2, 17]: <5% | Number of mice through 15 days/total number [2, 18]: 10/10 | Weight Change % [2, 18]: <5% | Number of mice through 15 days/total number [2, 19]: 10/10 | Weight Change % [2, 19]: <5% | Inhibition of cell growth (%) ([9]; single dose 2.5 μm): 5.2 ± 2.1% | Inhibition of cell growth (%) ([9]; single dose 5 μm): 7.7 ± 2.3% | Inhibition of cell growth (%) ([9]; single dose 10 μm): 43.35 ± 2.7% | Inhibition of cell growth (%) ([9]; single dose 20 μm): 86.1 ± 2.9% | Inhibition of cell growth (%) ([9]; single dose 40 μm): 88.45 ± 2.5% | Inhibition of cell growth (%) ([10]; single dose 2.5 μm): 18.83 ± 2.2% | Inhibition of cell growth (%) ([10]; single dose 5 μm): 21.23 ± 3.5% | Inhibition of cell growth (%) ([10]; single dose 10 μm): 31.65 ± 2.8% | Inhibition of cell growth (%) ([10]; single dose 20 μm): 35.34 ± 2.8% | Inhibition of cell growth (%) ([10]; single dose 40 μm): 75.34 ± 2.7% | Inhibition of cell growth (%) ([11]; single dose 2.5 μm): 10.05 ± 2.5% | Inhibition of cell growth (%) ([11]; single dose 5 μm): 15.1 ± 3% | Inhibition of cell growth (%) ([11]; single dose 10 μm): 49 ± 2.2% | Inhibition of cell growth (%) ([11]; single dose 20 μm): 83.7 ± 2.2% | Inhibition of cell growth (%) ([11]; single dose 40 μm): 95 ± 2.8% | ILS(%) increase of life span ([4]; Sc 25 mg/kg i.p.): 11.9% | ILS(%) increase of life span ([4]; Sc 50 mg/kg i.p.): 26% | ILS(%) increase of life span ([4]; Sc 100 mg/kg i.p.): 37% | ILS(%) increase of life span ([4]; Sc 200 mg/kg i.p.): 51% | Number of mice Through surviving 15 days/total number ([4]; Sc 25 mg/kg i.p.): 10/10 | Number of mice Through surviving 15 days/total number ([4]; Sc 50 mg/kg i.p.): 10/10 | Number of mice Through surviving 15 days/total number ([4]; Sc 100 mg/kg i.p.): 10/10 | Number of mice Through surviving 15 days/total number ([4]; Sc 200 mg/kg i.p.): 10/10 | Inhibition of cell growth (%) ([12]; single dose 2.5 μm): 1 ± 2.1% | Inhibition of cell growth (%) ([12]; single dose 5 μm): 7.7 ± 3.3% | Inhibition of cell growth (%) ([12]; single dose 10 μm): 32.33 ± 2.7% | Inhibition of cell growth (%) ([12]; single dose 20 μm): 62.65 ± 2.5% | Inhibition of cell growth (%) ([12]; single dose 40 μm): 91 ± 2.7%
